Data: PubChem BioAssay AID504934 (The Scripps Research Institute Molecular Screening Center, 2011)
Active and inactive are the calls of the source. The rule behind the calls is not given here.

Tests used:
Test in all cases: PubChem AID 504934
[1] = molecular target: Hepatocyte nuclear factor 4-alpha (Homo sapiens) (UniProt P41235); conditions: nuclear receptor panel Gal4 luciferase reporter, HNF4a, at 10 µM
PPARd = conditions: nuclear receptor panel Gal4 luciferase reporter, at 10 µM
[2] = molecular target: Bile acid receptor (Homo sapiens) (UniProt Q96RI1); conditions: nuclear receptor panel Gal4 luciferase reporter, FXR, at 10 µM
SHP = conditions: nuclear receptor panel Gal4 luciferase reporter, at 10 µM
[3] = molecular target: Nuclear receptor subfamily 5 group A member 2 (Homo sapiens) (UniProt O00482); conditions: nuclear receptor panel Gal4 luciferase reporter, LRH1, at 10 µM
[4] = molecular target: Nuclear receptor subfamily 1 group I member 2 (Homo sapiens) (UniProt O75469); conditions: nuclear receptor panel Gal4 luciferase reporter, PXR, at 10 µM
VP16 Control Plasmid = conditions: nuclear receptor panel Gal4 luciferase reporter, at 10 µM
[5] = molecular target: Retinoic acid receptor RXR-alpha (Homo sapiens) (UniProt P19793); conditions: nuclear receptor panel Gal4 luciferase reporter, RXRa, at 10 µM
VDR = conditions: nuclear receptor panel Gal4 luciferase reporter, at 10 µM
[6] = molecular target: Retinoic acid receptor RXR-beta (Homo sapiens) (UniProt P28702); conditions: nuclear receptor panel Gal4 luciferase reporter, RXRb, at 10 µM
RXRg = conditions: nuclear receptor panel Gal4 luciferase reporter, at 10 µM
[7] = molecular target: Estrogen receptor (Homo sapiens) (UniProt P03372); conditions: nuclear receptor panel Gal4 luciferase reporter, ESR1 (ESRA; Era), at 10 µM
PGR = conditions: nuclear receptor panel Gal4 luciferase reporter, at 10 µM
[8] = molecular target: COUP transcription factor 2 (Homo sapiens) (UniProt P24468); conditions: nuclear receptor panel Gal4 luciferase reporter, Coup-TF2, at 10 µM
ERRb = conditions: nuclear receptor panel Gal4 luciferase reporter, at 10 µM
RARb = conditions: nuclear receptor panel Gal4 luciferase reporter, at 10 µM
[9] = molecular target: Nuclear receptor subfamily 0 group B member 1 (Homo sapiens) (UniProt P51843); conditions: nuclear receptor panel Gal4 luciferase reporter, DAX, at 10 µM
[10] = molecular target: Steroidogenic factor 1 (Homo sapiens) (UniProt Q13285); conditions: nuclear receptor panel Gal4 luciferase reporter, SF1, at 10 µM
TR2 = conditions: nuclear receptor panel Gal4 luciferase reporter, at 10 µM
EAR-2 (COUP-TF3) = conditions: nuclear receptor panel Gal4 luciferase reporter, at 10 µM
TLX = conditions: nuclear receptor panel Gal4 luciferase reporter, at 10 µM
CAR = conditions: nuclear receptor panel Gal4 luciferase reporter, at 10 µM

Chain of Steroidogenic factor 1 (Homo sapiens) (Q13285 whole entry, looked up, the tested form may be a part): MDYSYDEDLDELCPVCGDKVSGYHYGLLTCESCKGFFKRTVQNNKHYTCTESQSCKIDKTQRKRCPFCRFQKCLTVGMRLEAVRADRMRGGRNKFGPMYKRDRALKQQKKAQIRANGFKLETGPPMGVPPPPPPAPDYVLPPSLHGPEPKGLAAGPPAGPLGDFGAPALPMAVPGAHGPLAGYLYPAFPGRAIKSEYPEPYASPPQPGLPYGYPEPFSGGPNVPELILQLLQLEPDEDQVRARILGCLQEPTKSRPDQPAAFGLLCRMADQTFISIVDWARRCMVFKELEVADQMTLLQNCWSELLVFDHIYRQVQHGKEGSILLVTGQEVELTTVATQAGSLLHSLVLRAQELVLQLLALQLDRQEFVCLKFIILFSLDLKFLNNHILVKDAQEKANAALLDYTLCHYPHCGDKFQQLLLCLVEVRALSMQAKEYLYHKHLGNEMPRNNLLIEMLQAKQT
Chain of Nuclear receptor subfamily 1 group I member 2 (Homo sapiens) (O75469 whole entry, looked up, the tested form may be a part): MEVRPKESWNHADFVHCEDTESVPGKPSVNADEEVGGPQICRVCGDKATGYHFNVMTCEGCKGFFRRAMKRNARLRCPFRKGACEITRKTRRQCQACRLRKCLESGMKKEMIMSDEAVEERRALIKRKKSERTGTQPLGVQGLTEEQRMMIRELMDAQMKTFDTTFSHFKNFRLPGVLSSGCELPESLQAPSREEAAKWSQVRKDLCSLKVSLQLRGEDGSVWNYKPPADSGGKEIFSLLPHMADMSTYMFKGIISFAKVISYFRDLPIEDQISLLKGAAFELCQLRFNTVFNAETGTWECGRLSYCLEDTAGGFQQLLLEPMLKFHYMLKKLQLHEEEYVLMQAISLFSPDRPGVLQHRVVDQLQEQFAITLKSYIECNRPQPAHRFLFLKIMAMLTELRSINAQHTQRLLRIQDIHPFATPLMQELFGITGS
Chain of Bile acid receptor (Homo sapiens) (Q96RI1 whole entry, looked up, the tested form may be a part): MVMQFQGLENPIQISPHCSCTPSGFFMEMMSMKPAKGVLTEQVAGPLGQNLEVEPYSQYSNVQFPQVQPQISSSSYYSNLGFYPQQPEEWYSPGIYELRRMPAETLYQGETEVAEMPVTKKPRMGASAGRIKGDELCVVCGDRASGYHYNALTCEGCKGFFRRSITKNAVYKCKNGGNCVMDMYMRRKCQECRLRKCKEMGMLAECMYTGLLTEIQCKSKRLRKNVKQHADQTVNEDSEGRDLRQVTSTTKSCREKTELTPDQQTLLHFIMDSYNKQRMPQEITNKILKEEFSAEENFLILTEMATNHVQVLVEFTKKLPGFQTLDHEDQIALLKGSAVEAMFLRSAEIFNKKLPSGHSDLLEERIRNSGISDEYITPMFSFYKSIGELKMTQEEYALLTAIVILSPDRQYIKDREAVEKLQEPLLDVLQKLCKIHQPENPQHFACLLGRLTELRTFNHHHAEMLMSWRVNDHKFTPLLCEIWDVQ
Chain of Retinoic acid receptor RXR-beta (Homo sapiens) (P28702 whole entry, looked up, the tested form may be a part): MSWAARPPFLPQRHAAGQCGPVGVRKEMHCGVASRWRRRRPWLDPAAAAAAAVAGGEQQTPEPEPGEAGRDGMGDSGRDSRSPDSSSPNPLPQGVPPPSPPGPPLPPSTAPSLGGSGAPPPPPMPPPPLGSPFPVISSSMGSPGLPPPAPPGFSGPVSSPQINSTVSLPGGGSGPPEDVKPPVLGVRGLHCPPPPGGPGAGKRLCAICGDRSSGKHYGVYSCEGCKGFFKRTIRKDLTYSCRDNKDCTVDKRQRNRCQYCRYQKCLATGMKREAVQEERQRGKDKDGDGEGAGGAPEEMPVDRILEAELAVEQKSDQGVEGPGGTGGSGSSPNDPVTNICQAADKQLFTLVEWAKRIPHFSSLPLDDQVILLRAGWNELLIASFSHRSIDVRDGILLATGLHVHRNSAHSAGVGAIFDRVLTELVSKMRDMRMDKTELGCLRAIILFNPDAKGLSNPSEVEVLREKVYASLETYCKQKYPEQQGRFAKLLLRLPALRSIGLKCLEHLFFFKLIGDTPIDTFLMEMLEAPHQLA
Chain of Estrogen receptor (Homo sapiens) (P03372 whole entry, looked up, the tested form may be a part): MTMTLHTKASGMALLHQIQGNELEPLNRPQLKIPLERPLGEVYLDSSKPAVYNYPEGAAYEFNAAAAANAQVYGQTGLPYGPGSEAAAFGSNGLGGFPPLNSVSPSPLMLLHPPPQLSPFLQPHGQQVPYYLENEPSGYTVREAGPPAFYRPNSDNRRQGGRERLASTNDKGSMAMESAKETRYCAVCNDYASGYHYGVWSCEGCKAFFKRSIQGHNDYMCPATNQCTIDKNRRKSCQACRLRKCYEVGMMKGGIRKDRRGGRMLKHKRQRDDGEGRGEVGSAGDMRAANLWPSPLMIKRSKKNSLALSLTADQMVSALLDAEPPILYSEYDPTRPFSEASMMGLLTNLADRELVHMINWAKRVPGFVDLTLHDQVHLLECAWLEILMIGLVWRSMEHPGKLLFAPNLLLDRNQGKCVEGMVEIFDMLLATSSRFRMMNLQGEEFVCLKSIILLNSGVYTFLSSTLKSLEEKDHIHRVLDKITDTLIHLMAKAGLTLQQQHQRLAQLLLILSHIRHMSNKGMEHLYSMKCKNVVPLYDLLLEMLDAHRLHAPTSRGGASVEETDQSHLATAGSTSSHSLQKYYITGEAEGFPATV
Chain of Nuclear receptor subfamily 0 group B member 1 (Homo sapiens) (P51843 whole entry, looked up, the tested form may be a part): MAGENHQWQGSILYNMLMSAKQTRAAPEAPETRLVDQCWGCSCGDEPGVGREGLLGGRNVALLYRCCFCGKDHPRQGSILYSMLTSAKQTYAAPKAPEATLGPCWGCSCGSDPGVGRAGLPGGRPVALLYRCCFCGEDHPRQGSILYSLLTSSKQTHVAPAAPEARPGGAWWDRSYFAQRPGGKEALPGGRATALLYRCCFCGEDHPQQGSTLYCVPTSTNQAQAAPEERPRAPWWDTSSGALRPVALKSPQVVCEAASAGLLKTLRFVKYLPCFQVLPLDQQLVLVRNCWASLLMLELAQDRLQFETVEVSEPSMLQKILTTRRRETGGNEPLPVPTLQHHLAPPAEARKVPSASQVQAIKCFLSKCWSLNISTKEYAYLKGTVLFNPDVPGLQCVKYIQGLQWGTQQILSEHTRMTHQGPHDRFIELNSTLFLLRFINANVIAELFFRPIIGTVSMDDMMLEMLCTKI
Chain of COUP transcription factor 2 (Homo sapiens) (P24468 whole entry, looked up, the tested form may be a part): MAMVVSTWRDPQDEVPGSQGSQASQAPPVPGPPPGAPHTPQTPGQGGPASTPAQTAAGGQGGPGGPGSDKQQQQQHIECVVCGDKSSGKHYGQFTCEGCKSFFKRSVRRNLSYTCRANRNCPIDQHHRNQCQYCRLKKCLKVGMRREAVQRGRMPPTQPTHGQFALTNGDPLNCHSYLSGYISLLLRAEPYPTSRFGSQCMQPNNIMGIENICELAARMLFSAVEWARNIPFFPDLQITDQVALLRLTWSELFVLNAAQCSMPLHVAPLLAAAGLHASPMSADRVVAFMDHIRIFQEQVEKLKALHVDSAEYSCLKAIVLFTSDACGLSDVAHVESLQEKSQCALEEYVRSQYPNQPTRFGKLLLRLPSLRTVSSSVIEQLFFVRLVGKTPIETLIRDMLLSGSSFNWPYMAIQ
Chain of Retinoic acid receptor RXR-alpha (Homo sapiens) (P19793 whole entry, looked up, the tested form may be a part): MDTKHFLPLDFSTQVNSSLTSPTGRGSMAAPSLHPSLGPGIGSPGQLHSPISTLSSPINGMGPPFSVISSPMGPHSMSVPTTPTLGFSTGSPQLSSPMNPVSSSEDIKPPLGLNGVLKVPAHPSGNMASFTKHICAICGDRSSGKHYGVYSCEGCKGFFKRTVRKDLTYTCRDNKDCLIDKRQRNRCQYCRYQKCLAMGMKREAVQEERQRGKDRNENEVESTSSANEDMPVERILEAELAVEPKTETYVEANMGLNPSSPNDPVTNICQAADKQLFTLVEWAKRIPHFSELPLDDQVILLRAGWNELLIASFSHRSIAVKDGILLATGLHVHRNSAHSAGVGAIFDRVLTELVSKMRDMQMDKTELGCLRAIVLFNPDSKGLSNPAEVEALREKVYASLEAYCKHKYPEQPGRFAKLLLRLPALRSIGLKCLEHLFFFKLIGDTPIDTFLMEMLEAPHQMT
Chain of Nuclear receptor subfamily 5 group A member 2 (Homo sapiens) (O00482 whole entry, looked up, the tested form may be a part): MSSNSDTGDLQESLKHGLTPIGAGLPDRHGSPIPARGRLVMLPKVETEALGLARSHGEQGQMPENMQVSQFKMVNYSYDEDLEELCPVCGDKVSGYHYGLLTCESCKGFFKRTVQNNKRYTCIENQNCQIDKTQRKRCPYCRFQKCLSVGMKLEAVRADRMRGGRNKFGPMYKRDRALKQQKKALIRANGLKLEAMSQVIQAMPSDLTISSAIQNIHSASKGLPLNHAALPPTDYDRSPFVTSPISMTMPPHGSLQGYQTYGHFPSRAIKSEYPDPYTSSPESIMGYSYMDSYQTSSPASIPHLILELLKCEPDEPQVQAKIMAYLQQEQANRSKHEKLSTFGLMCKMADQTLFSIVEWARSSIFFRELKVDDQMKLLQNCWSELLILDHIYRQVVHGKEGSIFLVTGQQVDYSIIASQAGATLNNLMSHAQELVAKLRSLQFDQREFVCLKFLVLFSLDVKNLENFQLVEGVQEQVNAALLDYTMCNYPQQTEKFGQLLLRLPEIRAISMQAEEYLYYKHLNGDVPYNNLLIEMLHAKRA
Chain of Hepatocyte nuclear factor 4-alpha (Homo sapiens) (P41235 whole entry, looked up, the tested form may be a part): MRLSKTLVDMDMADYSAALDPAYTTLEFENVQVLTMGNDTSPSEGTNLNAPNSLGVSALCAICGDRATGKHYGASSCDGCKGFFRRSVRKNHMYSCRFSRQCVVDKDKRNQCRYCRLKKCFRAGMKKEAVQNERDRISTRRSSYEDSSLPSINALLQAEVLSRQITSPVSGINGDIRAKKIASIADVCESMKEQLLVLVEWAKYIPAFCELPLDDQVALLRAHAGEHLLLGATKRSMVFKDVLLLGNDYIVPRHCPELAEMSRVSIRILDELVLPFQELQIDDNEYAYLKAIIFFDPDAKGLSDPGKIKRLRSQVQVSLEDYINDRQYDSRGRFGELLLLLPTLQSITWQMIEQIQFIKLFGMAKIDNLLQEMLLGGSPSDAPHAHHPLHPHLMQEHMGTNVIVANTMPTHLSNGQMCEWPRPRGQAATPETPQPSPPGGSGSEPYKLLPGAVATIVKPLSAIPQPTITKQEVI

- fold change [1]: 0.61
- fold change (PPARd): 1.54
- fold change [2]: 2.52
- fold change (SHP): 0.86 (inactive)
- fold change [3]: 0.88 (inactive)
- fold change [4]: 1.26
- fold change (VP16 Control Plasmid): 0.82 (inactive)
- fold change [5]: 0.75
- fold change (VDR): 0.83 (inactive)
- fold change [6]: 0.78
- fold change (RXRg): 0.81 (inactive)
- fold change [7]: 0.61
- fold change (PGR): 0.97 (inactive)
- fold change [8]: 1.04 (inactive)
- fold change (ERRb): 1.02 (inactive)
- fold change (RARb): 0.54
- fold change [9]: 1.03 (inactive)
- fold change [10]: 0.71
- fold change (TR2): 0.63
- fold change (EAR-2 (COUP-TF3)): 1 (inactive)
- fold change (TLX): 0.88 (inactive)
- fold change (CAR): 0.38
Structure (SMILES): O=c1cc(N2CCN(c3cccc(Cl)c3)CC2)[nH]c(=O)n1C1CCCCC1
